Experimental data taken from publication PMC12195941, “Novel Micro-LC-MS/MS Method for the Quantification of Tenofovir and Its Active Metabolite Tenofovir-Diphosphate in Biological Matrices for Therapeutic Drug Monitoring” (Pharmaceuticals, 2025).

Assays:
[1] = Validation stability of TFV and TFVDP in spiked whole blood and sample extracts; type: in vitro ADME; conditions: for Stability, Sample extracts 24 h 10 °C: autosampler; for Stability, Sample extracts 24 h 10 °C / Stability, Blood 4 h room temp. / Stability, Blood freeze-thaw 5 cycles / Stability, Blood at −30 °C for 1 month: the values are: stability, % of nominal; for Stability, Blood at −30 °C for 1 month: blood diluted 1:5 with 1.25% ammonia
Protocol: Samples were stable for 1 month at −30 °C, for 5 freeze–thaw cycles and for 24 h at 10 °C in the autosampler. Benchtop stability was evaluated for 4 h at room temperature with blood samples spiked with TFVDP only and the results were within 96.9 and 104.714 from nominal in stabilized conditions, while in the absence of the phosphatase inhibitor the degradation was, on average, 85% at all tested concentrations. Calibration curves were linear for both TFV and TFVDP, with correlation coefficients > 0.995.
Spiked calibration standards (CC) and quality control (QC) samples were prepared in whole blood diluted 1:5 with ultrapure water containing 1.25% ammonia (v/v). TFV concentrations were as follows: 0–0.25–1–4–16–64–128–256 ng/mL (CC) and 0.75–15–210 ng/mL (QC Low, Medium and High, respectively). TFVDP concentrations were as follows: 0–0.5–2–8–32–128–256–512 ng/mL (CC) and 1.5–30–420 ng/mL (QC Low, Medium and High, respectively).
Blank blood was frozen at −80 °C before use; therefore, cells were lysed. CCs and QCs were built in blood diluted 1 + 4 with water and alkalinized with 1.25% ammonia, for phosphatases inhibition. Patient samples received identical treatment before undergoing the sample preparation protocol, ensuring uniform composition across samples.
The method for quantifying TFV and TFVDP in whole blood was validated in terms of selectivity, linearity, accuracy, precision, limits of quantification, sample stability under storage and processing conditions, extraction recovery, and matrix effects, in accordance with the April 2022 ICH guidelines, subsequently adopted by the FDA in November 2022 [38]. The analytical ranges to be validated were chosen based upon the expected concentrations as found in literature and from in-house preliminary experiments. Matrix effects were evaluated comparing the signal of theoretical QC concentrations prepared in mobile phase (taken as 100% recovery) against those obtained after spiking blank extracts at identical concentrations. Matrix factors were calculated for each analyte, and isotope-labelled internal standards were employed to correct for residual matrix influence.

[2] = TFV and TFVDP levels in clinical samples (whole blood, plasma) of treated patients by micro-LC-MS/MS; type: in vivo; conditions: patient 10, tenofovir alafenamide 25 mg, 12 to 24 h after dosing
Protocol: Blood samples were collected, with informed consent, from 11 HIV-infected patients treated with tenofovir, 12 to 24 h after dosing. Two patients (numbers 10 and 11) received tenofovir alafenamide 25 mg, the others being administered with tenofovir disoproxil fumarate 245 mg.
Blood samples were collected from HIV-positive patients at the National Institute for Infectious Diseases “Prof Dr. Matei Bals”, with the approval of the Bioethical Committee (protocol code C10242/02.10.2024, approved 18 October 2024). All patients were under treatment with anti-retroviral drugs, and sampling was performed from 12 to 24 h after dosing.
Blood samples (4 mL each) were collected using potassium EDTA (sampling tubes EDTAK3, 4.0 mL, Englober SRL, Brasov, Romania) or sodium citrate (9NC sampling tubes, BD, Plymouth, UK) as anticoagulants. Aliquots of 0.5 mL were used for plasma separation, by centrifugation (5 min, 3900 rpm), within 60 min from sampling. […] All samples were frozen at −30 °C until analyzed. […]
Analyses were performed in positive electrospray ionization mode. The chromatographic trace 288.054/176.0 was used for TFV quantification, while TFVDP was monitored on the trace 447.942/176.0. Mass transitions 288.054/135.9 and 447.942/270.0 were also used for confirmation of the measured compounds. […]

[3] = TFVDP stability in blood spiked without stabilizers (degradation by phosphatases); type: in vitro ADME; conditions: degrades to TFVMP and TFV
Protocol: A series of experiments was conducted to evaluate this degradation by phosphatases and counteract it. TFVDP only (1 or 2 µg/mL) was added to blood or plasma; 50 µL aliquots were extracted in the presence of isotope-labeled internal standards, and the formation of TFV and […] was monitored, together with TFVDP degradation. […] The extent of the phenomenon is illustrated in Figure 3. The first attempt to reduce phosphatases activity was performing all the sample preparation procedures on ice bath. No significant improvement was observed.
Figure 3 Extracted ion chromatograms overlay (A) recorded on the MRM transitions of TFV (B), TFVMP (C) and TFVDP (D) and their corresponding deuterated internal standards in an extracted sample (as described in paragraph 3.5). Blood sample diluted 1:5 with water and spiked with 520 ng/mL TFVDP in a non-stabilized sample (left) and with phosphatases inhibition (right). High peaks of TFMP were observed only after a short time (30 min) at room temperature without enzyme inhibition.

[4] = parameters: method as in PMID 21118913, PMID 30137238, PMID 25065857; conditions: in red blood cells (RBC); cited from earlier work
[5] = QC High (n = 4; TFV 210, TFVDP 420 ng/mL)
[6] = QC Low (n = 4; TFV 0.75, TFVDP 1.5 ng/mL)

| Stability, Sample extracts 24 h 10 °C ([1]; QC High (n = 4)) [%] | Stability, Blood 4 h room temp. ([1]; QC High (n = 4)) [%] | Stability, Blood freeze-thaw 5 cycles ([1]; QC High (n = 4)) [%] | Stability, Blood at −30 °C for 1 month [1, 5] [%] | Stability, Sample extracts 24 h 10 °C ([1]; QC Low (n = 4)) [%] | Stability, Blood 4 h room temp. ([1]; QC Low (n = 4)) [%] | Stability, Blood freeze-thaw 5 cycles ([1]; QC Low (n = 4)) [%] | Stability, Blood at −30 °C for 1 month [1, 6] [%] | Level in clinical sample, Blood [2] | Stability of added diphosphate metabolite in blood [3] | Degradation in the absence of the phosphatase inhibitor ([1]; 4 h at room temperature, blood spiked with TFVDP only, average at all tested concentrations) [%] | Structure (SMILES) | half-life [4] [days] |
| --- | --- | --- | --- | --- | --- | --- | --- | --- | --- | --- | --- | --- |
| 90.7 | 101 | 111 | 112 | 94.4 | 102 | 114 | 104 | BLQ |  |  | C[C@H](Cn1cnc2c(N)ncnc21)OCP(=O)(O)O [TFV, Tenofovir] |  |
| 94.3 | 96.9 | 95.4 | 106 | 105 | 105 | 111 | 92.5 |  | unstable in blood | 85 | C[C@H](Cn1cnc2c(N)ncnc21)OCP(=O)(O)OP(=O)(O)OP(=O)(O)O [TFVDP, tenofovir diphosphate] | 17 |
